Measurements reported in patent publication US9999220B2, “Method for repelling rodents” (Arkion Life Sciences, LLC, priority 2014, dated 2018).

Key:
[1] = test system: black-tailed prairie dogs; assay: Concentration-response repellency experiment, treated whole corn, black-tailed prairie dogs; assay type: in vivo, Cynomys ludovicianus; conditions: black-tailed prairie dogs offered corn seeds treated with 0.5-4% anthraquinone (target concentrations), 1-day test
From the text: (§1) These values can also be used to form ranges, such as, for example, from about 15% to about 85% repellency, with preferred ranges for particular rodent families ranging from about 20-50%; 25-40%; 40-55%; and 55-85%. The percent repellency is based on the percentage of the treated item which is not consumed by the animal.
(§2) We conducted a concentration-response experiment with an anthraquinone-based repellent (Avipel®, a.i. 50% 9,10-anthraquinone; Arkion Life Sciences, New Castle, Del.) to determine anthraquinone repellency for black-tailed prairie dogs (Cynomys ludovicianus, N=44 males and females; Werner et al. 2011). During a 3-day pre-test, we offered one bowl (untreated whole corn) in individual cages at 08:00 h, daily. […] We randomly assigned repellent treatments among groups. During the 1-day test, we offered one bowl (repellent-treated whole corn) at 08:00 h. Consumption of treated corn seeds was measured (±0.1 g) at 08:00 h on the day subsequent to the test.
We observed 24-37% repellency (FIG. 1) during our concentration-response experiment with black-tailed prairie dogs offered corn seeds treated with 0.5-4% anthraquinone (target concentrations; Werner et al. 2011).

[2] = test system: Sprague-Dawley rats; assay: 13-week single-choice feeding study in Sprague-Dawley rats (rat repellency example); assay type: in vivo; conditions: for Body Weight Day 1: Day 1, mean ± SD; for Body Weight Week 3: Week 3, mean ± SD; for Body Weight Week 7: Week 7, mean ± SD; for Body Weight Week 13: Week 13, mean ± SD; for Total Weight Gain % difference from control / Total Weight Gain: over 13 weeks; for Total Weight Gain: mean ± SD
Description: Anthraquinone is not a classic toxicant but a feeding study on Sprague-Dawley rats was done to determine effects of long term feeding where there was a single choice offered to rats over a 13 week period.
Anthraquinones was administered to four groups of 10 male and 10 female Sprague-Dawley rats/group at concentrations of 0, 500, 2000, or 7500 ppm (0, 40, 125, or 495 mg/kg/day in males; 0, 44, 150, or 661 mg/kg/day in females) for 4 consecutive weeks. Beginning with Week 5, the 500 ppm diet was reduced to 200 ppm resulting in lowering the doses to 11 and 16 mg/kg/day for males and females, respectively, through the end of the 13-week experimental period.
Significant reduction in feeding with a single choice indicates a non-lethal repellency.

[3] = test system: deer mice; assay: Concentration-response repellency experiment, treated whole oats, deer mice; assay type: in vivo, Peromyscus maniculatus; conditions: deer mice offered oats treated with 0.25-2% anthraquinone (target concentrations), 1-day test
Description: During a 3-day pre-test, we offered one bowl (untreated whole oats) in individual cages at 08:00 h, daily. […] We randomly assigned repellent treatments among groups. During the 1-day test, we offered one bowl (repellent-treated whole oats) at 08:00 h. Consumption of treated oats was measured (±0.1 g) at 08:00 h on the day subsequent to the test.

[4] = test system: Richardson's ground squirrels; assay: Concentration-response repellency experiment, treated whole oats, Richardson's ground squirrels; assay type: in vivo, Urocitellus richardsonii; conditions: Richardson's ground squirrels offered oats treated with 0.5-2% anthraquinone (target concentrations), 1-day test
From the text: as §1
as §2, with “a.i.50%” for “a.i. 50%”, “Richardson's ground squirrels (Urocitellus richardsonii, N=28” for “black-tailed prairie dogs (Cynomys ludovicianus, N=44”, “females).” for “females; Werner et al. 2011).”, “oats)” for “corn)”, “oats” for “corn seeds”
We observed 40-56% repellency (FIG. 3) during our concentration-response experiment with Richardson's ground squirrels offered oats treated with 0.5-2% anthraquinone (target concentrations).

[5] = test system: California voles; assay: Concentration-response repellency experiment, treated whole oats, California voles; assay type: in vivo, Microtus californicus; conditions: California voles offered oats treated with 0.5-2% anthraquinone (target concentrations), 1-day test
From the text: as §1
as §2, with “California (Microtus californicus, N=30” for “black-tailed prairie dogs (Cynomys ludovicianus, N=44”, “females).” for “females; Werner et al. 2011).”, “oats)” for “corn)”, “oats” for “corn seeds”
We observed 58-84% repellency (FIG. 2) during our concentration-response experiment with California voles offered oats treated with 0.5-2% anthraquinone (target concentrations).

[6] = females, 500 ppm diet (200 ppm from Week 5)
[7] = males, 500 ppm diet (200 ppm from Week 5)

O=C1c2ccccc2C(=O)c2ccccc21 [anthraquinone, 9,10-anthraquinone]
repellency [1]: 24-37%
repellency observed (lack of weight gain from inhibited feeding) ([2]; 500 ppm in diet, single choice, 13 weeks): some repellency was observed
Body Weight Day 1 [2, 6]: 185 ± 12.2 G
Body Weight Week 3 [2, 6]: 223 ± 12.4 G
Body Weight Week 7 [2, 6]: 254 ± 14.2 G
Body Weight Week 13 [2, 6]: 274 ± 15.0 G
Total Weight Gain % difference from control [2, 6]: −27%
Total Weight Gain [2, 6]: 89 ± 10.1 Grams
Body Weight Day 1 ([2]; females, 2000 ppm diet): 188 ± 14.6 G
Body Weight Week 3 ([2]; females, 2000 ppm diet): 212 ± 14.2 G
Body Weight Week 7 ([2]; females, 2000 ppm diet): 238 ± 11.7 G
Body Weight Week 13 ([2]; females, 2000 ppm diet): 247 ± 16.3 G
Total Weight Gain % difference from control ([2]; females, 2000 ppm diet): −51%
Total Weight Gain ([2]; females, 2000 ppm diet): 59 ± 9.2 Grams
Body Weight Day 1 ([2]; females, 7500 ppm diet): 189 ± 11.8 G
Body Weight Week 3 ([2]; females, 7500 ppm diet): 204 ± 22.0 G
Body Weight Week 7 ([2]; females, 7500 ppm diet): 226 ± 26.3 G
Body Weight Week 13 ([2]; females, 7500 ppm diet): 217 ± 27.7 G
Total Weight Gain % difference from control ([2]; females, 7500 ppm diet): −76%
Total Weight Gain ([2]; females, 7500 ppm diet): 29 ± 28.2 Grams
Body Weight Day 1 [2, 7]: 252 ± 14.5 G
Body Weight Week 3 [2, 7]: 379 ± 26.4 G
Body Weight Week 7 [2, 7]: 471 ± 39.4 G
Body Weight Week 13 [2, 7]: 528 ± 47.4 G
Total Weight Gain % difference from control [2, 7]: −11%
Total Weight Gain [2, 7]: 275 ± 38.7 Grams
Body Weight Day 1 ([2]; males, 2000 ppm diet): 250 ± 13.5 G
Body Weight Week 3 ([2]; males, 2000 ppm diet): 359 ± 23.7 G
Body Weight Week 7 ([2]; males, 2000 ppm diet): 443 ± 36.9 G
Body Weight Week 13 ([2]; males, 2000 ppm diet): 498 ± 43.0 G
Total Weight Gain % difference from control ([2]; males, 2000 ppm diet): −20%
Total Weight Gain ([2]; males, 2000 ppm diet): 247 ± 37.1 Grams
Body Weight Day 1 ([2]; males, 7500 ppm diet): 250 ± 10.1 G
Body Weight Week 3 ([2]; males, 7500 ppm diet): 342 ± 20.2 G
Body Weight Week 7 ([2]; males, 7500 ppm diet): 425 ± 28.7 G
Body Weight Week 13 ([2]; males, 7500 ppm diet): 470 ± 37.9 G
Total Weight Gain % difference from control ([2]; males, 7500 ppm diet): −28%
Total Weight Gain ([2]; males, 7500 ppm diet): 221 ± 34.0 Grams
dietary concentration at which effective repellency began ([2]; single choice diet, 13 weeks): approximately 2000 ppm
repellency [3]: 19-52%
repellency [4]: 40-56%
repellency [5]: 58-84%
